Assay results published in patent US20230120564A1, “PYRIDO[3,4-D]PYRIMIDINE DERIVATIVE AND THERAPEUTIC PHARMACEUTIC COMPOSITION COMPRISING SAME” (KOREA INSTITUTE OF SCIENCE AND TECHNOLOGY, priority 2020, published 2023).

Columns and labels:
Ba/F3 (parental) = experiment: Inhibition of cell proliferation (GI50); assay type: cell-based; conditions: Mus musculus, BaF3; Ba/F3 (parental) cell line; read-out: Proliferation inhibitory activity (GI50, μM) Ba/F3 (parental)
Procedure: The inhibitory activities of the compounds of the present invention against the proliferation of the Ba/F3 (parental) cell line were measured and the GI50 values thereof were calculated.

OCI-AML3 (N-Ras Q61L) = experiment: Inhibition of cell proliferation (GI50); assay type: cell-based; conditions: Homo sapiens, OCI-AML-3; OCI-AML3 cell line; read-out: Proliferation inhibitory activity (GI50, μM) OCI-AML3 (N-Ras Q61L)
Procedure: The inhibitory activities of the compounds of the present invention against the proliferation of the mt-NRAS (G12D) Ba/F3 and […] (mt-NRAS) cell lines were measured and the GI50 values thereof were calculated.
Referring to the results in Table 2, it can be seen that the compound of the present invention has inhibitory activity against the proliferation of the human acute myeloid leukemia cell line (OCI-AML3) having the NRAS mutant gene, and the effect thereof is remarkable. Therefore, it can be seen that the compound of the present invention is particularly effective as a therapeutic agent for acute myeloid leukemia (AML).

ACK1 = ACK1 (Homo sapiens, UniProt Q07912); experiment: Kinase inhibitory activity, IC50; assay type: biochemical
Chain of ACK1 (Q07912 whole entry): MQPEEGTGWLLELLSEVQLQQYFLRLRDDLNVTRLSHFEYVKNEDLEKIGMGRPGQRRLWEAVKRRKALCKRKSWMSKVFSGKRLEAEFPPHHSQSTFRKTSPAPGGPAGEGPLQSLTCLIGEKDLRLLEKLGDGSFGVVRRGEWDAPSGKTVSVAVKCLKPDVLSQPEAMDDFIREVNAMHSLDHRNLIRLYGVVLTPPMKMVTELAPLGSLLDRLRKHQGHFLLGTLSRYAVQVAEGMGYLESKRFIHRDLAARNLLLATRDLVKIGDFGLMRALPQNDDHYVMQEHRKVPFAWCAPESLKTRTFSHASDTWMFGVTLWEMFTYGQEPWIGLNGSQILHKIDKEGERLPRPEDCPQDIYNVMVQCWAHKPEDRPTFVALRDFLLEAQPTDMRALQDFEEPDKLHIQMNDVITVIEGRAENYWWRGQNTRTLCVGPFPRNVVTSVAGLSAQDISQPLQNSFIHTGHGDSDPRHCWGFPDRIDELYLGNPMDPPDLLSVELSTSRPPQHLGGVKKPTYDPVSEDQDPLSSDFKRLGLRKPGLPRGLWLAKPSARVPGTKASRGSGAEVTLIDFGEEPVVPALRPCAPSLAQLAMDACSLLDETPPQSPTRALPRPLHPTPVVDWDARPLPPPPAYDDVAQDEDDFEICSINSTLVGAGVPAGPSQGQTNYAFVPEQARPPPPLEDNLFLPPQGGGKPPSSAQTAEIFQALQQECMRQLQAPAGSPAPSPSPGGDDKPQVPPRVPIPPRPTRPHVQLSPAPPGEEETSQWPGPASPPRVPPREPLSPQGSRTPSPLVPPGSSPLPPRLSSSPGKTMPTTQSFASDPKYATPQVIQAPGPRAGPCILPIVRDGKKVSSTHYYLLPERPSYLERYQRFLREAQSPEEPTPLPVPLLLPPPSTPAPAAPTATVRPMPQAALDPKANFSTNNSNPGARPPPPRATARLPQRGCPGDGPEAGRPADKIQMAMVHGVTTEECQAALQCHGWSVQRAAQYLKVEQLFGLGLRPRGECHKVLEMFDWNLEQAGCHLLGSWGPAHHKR
Procedure: (§1) The inhibitory activities of the compounds of the present invention against two kinases, GCK and ACK1, were measured, and the IC50 values thereof were calculated. As a control, the following compound GNF7 was used.

GCK = biological target: T1, GCK (Homo sapiens, UniProt Q12851); experiment: Kinase inhibitory activity, IC50; assay type: biochemical
T1 sequence (Q12851 1-820): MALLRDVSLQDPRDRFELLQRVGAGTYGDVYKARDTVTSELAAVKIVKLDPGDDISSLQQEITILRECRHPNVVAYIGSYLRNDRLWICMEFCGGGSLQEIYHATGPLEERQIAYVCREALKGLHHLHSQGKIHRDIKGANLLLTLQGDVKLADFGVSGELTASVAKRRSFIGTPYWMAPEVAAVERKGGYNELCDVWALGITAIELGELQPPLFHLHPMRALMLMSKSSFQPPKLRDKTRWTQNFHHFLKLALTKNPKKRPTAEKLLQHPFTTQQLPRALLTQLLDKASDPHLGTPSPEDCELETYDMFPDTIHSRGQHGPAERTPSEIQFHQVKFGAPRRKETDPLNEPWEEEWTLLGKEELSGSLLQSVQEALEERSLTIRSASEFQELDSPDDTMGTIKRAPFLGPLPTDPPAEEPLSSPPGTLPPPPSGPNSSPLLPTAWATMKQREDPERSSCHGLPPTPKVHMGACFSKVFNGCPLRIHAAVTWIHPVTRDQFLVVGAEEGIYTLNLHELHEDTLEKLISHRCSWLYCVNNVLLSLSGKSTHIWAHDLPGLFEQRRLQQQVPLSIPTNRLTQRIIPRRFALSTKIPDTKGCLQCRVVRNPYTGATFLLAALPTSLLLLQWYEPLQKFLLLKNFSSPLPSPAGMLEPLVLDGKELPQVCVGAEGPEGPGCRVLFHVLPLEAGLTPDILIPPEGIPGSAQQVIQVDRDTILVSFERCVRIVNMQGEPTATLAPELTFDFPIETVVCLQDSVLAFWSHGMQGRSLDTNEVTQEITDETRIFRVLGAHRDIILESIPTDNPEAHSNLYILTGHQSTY
Procedure: as §1

GI50 (OCI-AML3 (N-Ras Q61L)): < 0.5 µM
IC50 (ACK1): < 100 nM
IC50 (GCK): 100 to 1000 nM
Structure (SMILES): Cc1ccc(Nc2ncc3cc(-c4cc(NC(=O)c5cccc(C(F)(F)F)c5)ccc4C)ncc3n2)cn1 [Compound No. 4, N-(4-methyl-3-(2-((6-methylpyridin-3-yl)amino)pyrido[3,4-d]pyrimidin-6-yl)phenyl)-3-(trifluoromethyl)benzamide]
GI50 (Ba/F3 (parental)): < 0.5 µM
